# Test results: ChEMBL document CHEMBL5137131, “Mechanisms of Biochanin A Alleviating PM2.5 Organic Extracts-Induced EMT of A549 Cells through the PI3K/Akt Pathway” (J Nat Prod, 2022)
# Calls of active or inactive are those of the source. The calls are words filed in the database; no cut-off is given here.
# How the values were obtained:
# A549 [1] = experiment: Inhibition of PM2.5 induced PI3K expression in human A549 cells at 10 to 30 uM by qRT-PCR analysis; format: functional, cell-based; details: dose 10-30 µM
# A549 [2] = experiment: Downregulation of PM2.5 induced fibronectin mRNA level in human A549 cells at 20 uM by qRT-PCR analysis; format: functional, cell-based
# A549 [3] = experiment: Inhibition of cell migration in PM2.5 induced human A549 assessed as relative migration rate at 10 uM incubated for 24 hr by wound healing assay (reference value: 129%); format: functional; set-up: scale not given: the % may be the effect or the level left
# A549 [4] = experiment: Inhibition of cell invasion in PM2.5 induced human A549 cells assessed as number of cell perforation at 30 uM measured after 24 hrs by Giemsa staining based transwell assay (reference value: 93 +/- 4.04%); format: functional; set-up: scale not given: the % may be the effect or the level left
# A549 [5] = experiment: Inhibition of cell invasion in PM2.5 induced human A549 cells assessed as reduction in cell invasiveness at 30 uM measured after 24 hrs by Giemsa staining based transwell assay relative to control; format: functional; set-up: scale not given: the % may be the effect or the level left
# A549 [6] = experiment: Downregulation of PM2.5 induced MMP-2 activation in human A549 cells at 10 uM by ELISA; format: functional, cell-based
# A549 [7] = experiment: Inhibition of cell migration in PM2.5 induced human A549 assessed as relative migration length at 30 uM incubated for 24 hr by wound healing assay (reference value: 0.363 micrometer); format: functional
# A549 [8] = experiment: Downregulation of PM2.5 induced N-cadherin mRNA level in human A549 cells at 10 uM by qRT-PCR analysis relative to control; format: functional
# A549 [9] = experiment: Protection against PM2.5 induced human A549 cells injury assessed as reduction in PM2.5 induced cell proliferation inhibition at 10 to 30 uM measured at 24 hrs by CCK-8 analysis; format: functional, cell-based; details: dose 10-30 µM
# A549 [10] = experiment: Inhibition of cell migration in PM2.5 induced human A549 assessed as relative migration rate at 30 uM incubated for 24 hr by wound healing assay (reference value: 129%); format: functional; set-up: scale not given: the % may be the effect or the level left
# A549 [11] = experiment: Downregulation of PM2.5 induced fibronectin mRNA level in human A549 cells at 30 uM by qRT-PCR analysis; format: functional, cell-based
# A549 [12] = experiment: Inhibition of PM2.5 induced Akt phosphorylation in human A549 cells at 10 to 30 uM […]; format: functional, cell-based; details: dose 10-30 µM
# A549 [13] = experiment: Inhibition of PM2.5 induced PI3K/Akt activation assessed as inhibition of Snail expression in human A549 cells at 10 to 20 uM; format: cell-based; details: dose 10-20 µM
# A549 [14] = experiment: Inhibition of cell migration in PM2.5 induced human A549 assessed as relative migration length at 20 uM incubated for 24 hr by wound healing assay (reference value: 0.363 micrometer); format: functional
# [15] = target: T1, Serine/threonine-protein kinase AKT (Homo sapiens) (UniProt P31751+Q9Y243+P31749); experiment: Inhibition of PM2.5 induced Akt phosphorylation upregulation in human A549 cells at 30 uM by Western blot analysis relative to control; format: cell-based
# T1 sequence (P31749 whole entry, looked up): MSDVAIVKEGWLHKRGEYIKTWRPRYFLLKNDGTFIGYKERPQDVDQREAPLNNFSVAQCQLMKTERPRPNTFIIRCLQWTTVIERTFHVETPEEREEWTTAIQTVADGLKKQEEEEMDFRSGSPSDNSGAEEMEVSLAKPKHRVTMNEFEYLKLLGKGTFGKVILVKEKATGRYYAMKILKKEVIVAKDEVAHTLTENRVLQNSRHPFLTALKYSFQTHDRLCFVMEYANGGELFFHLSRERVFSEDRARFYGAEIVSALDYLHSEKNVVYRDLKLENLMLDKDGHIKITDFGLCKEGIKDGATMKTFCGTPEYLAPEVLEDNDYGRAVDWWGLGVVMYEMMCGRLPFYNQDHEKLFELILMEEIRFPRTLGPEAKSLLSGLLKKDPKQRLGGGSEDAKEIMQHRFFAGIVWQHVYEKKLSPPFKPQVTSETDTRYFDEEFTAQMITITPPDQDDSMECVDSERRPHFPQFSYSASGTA
# T1 sequence (P31751 whole entry, looked up): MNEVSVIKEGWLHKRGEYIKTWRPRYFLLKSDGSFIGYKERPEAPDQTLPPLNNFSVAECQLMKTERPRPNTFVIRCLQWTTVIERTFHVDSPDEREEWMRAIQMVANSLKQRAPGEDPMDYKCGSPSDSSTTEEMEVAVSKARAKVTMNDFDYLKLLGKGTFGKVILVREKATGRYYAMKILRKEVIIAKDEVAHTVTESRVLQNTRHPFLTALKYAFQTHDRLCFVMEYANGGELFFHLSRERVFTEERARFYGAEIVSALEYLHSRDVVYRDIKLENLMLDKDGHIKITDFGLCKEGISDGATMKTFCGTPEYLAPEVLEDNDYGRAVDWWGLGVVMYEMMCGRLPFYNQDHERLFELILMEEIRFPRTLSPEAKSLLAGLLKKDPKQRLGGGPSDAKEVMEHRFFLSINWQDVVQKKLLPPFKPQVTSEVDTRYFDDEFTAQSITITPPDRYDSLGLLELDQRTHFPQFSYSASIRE
# T1 sequence (Q9Y243 whole entry, looked up): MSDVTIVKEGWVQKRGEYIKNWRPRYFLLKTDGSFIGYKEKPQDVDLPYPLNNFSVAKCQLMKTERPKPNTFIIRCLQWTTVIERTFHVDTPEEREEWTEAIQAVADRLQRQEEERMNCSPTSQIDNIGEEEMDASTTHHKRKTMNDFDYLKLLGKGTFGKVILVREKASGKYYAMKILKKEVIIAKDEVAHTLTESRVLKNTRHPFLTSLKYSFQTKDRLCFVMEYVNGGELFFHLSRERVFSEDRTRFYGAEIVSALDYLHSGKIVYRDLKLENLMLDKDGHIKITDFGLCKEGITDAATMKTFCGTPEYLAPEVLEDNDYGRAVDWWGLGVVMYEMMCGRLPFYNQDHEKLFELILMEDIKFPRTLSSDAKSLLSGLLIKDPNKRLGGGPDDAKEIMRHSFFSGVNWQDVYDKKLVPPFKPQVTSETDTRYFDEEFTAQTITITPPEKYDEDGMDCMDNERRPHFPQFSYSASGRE
# A549 [16] = experiment: Inhibition of cell migration in PM2.5 induced human A549 assessed as scratch migration length at 20 uM incubated for 24 hr by wound healing assay (reference value: 1.757 +/- 0.094 micrometer); format: functional
# A549 [17] = experiment: Downregulation of PM2.5 induced vimentin mRNA expression in human A549 cells at 30 uM by qRT-PCR analysis relative to control; format: functional
# A549 [18] = experiment: Inhibition of PM2.5 induced TGF-beta1 secretion in human A549 cells at 20 uM by ELISA relative to control; format: functional
# [19] = target: T1, Serine/threonine-protein kinase AKT (Homo sapiens); experiment: Inhibition of PM2.5 induced Akt phosphorylation upregulation in human A549 cells at 20 uM by Western blot analysis relative to control; format: cell-based
# A549 [20] = experiment: Downregulation of PM2.5 induced fibronectin mRNA level in human A549 cells at 10 uM by qRT-PCR analysis; format: functional, cell-based
# A549 [21] = experiment: Inhibition of PM2.5 induced TGF-beta1 secretion in human A549 cells at 30 uM by ELISA relative to control; format: functional
# A549 [22] = experiment: Inhibition of PM2.5 induced PI3K/Akt activation assessed as inhibition of Slug expression in human A549 cells at 10 to 20 uM; format: cell-based; details: dose 10-20 µM
# A549 [23] = experiment: Inhibition of cell migration in PM2.5 induced human A549 assessed as scratch migration length at 30 uM incubated for 24 hr by wound healing assay (reference value: 1.757 +/- 0.094 micrometer); format: functional
# [24] = target: T1, Serine/threonine-protein kinase AKT (Homo sapiens); experiment: Inhibition of PM2.5 induced Akt phosphorylation upregulation in human A549 cells at 10 uM by Western blot analysis relative to control; format: cell-based
# A549 [25] = experiment: Upregulation of PM2.5 induced mRNA expression in human A549 cells at 20 uM by qRT-PCR analysis; format: functional, cell-based
# A549 [26] = experiment: Inhibition of cell invasion in PM2.5 induced human A549 cells assessed as number of cell perforation at 10 uM measured after 24 hrs by Giemsa staining based transwell assay (reference value: 93 +/- 4.04%); format: functional; set-up: scale not given: the % may be the effect or the level left
# A549 [27] = experiment: Downregulation of PM2.5 induced CXCL12 expression in human A549 cells at 10 uM by ELISA relative to control; format: functional
# A549 [28] = experiment: Inhibition of PM2.5 induced PI3K upregulation in human A549 cells at 30 uM by Western blot analysis relative to control; format: functional
# A549 [29] = experiment: Inhibition of cell migration in PM2.5 induced human A549 assessed as relative migration rate at 20 uM incubated for 24 hr by wound healing assay (reference value: 129%); format: functional; set-up: scale not given: the % may be the effect or the level left
# A549 [30] = experiment: Inhibition of cell migration in PM2.5 induced human A549 assessed as scratch migration length at 10 uM incubated for 24 hr by wound healing assay (reference value: 1.757 +/- 0.094 micrometer); format: functional
# A549 [31] = experiment: Inhibition of PM2.5 induced PI3K upregulation in human A549 cells at 20 uM by Western blot analysis relative to control; format: functional
# A549 [32] = experiment: Cytotoxicity against human A549 cells assessed as reduction in cell viability at 200 uM incubated for 48 hrs by CCK-8 assay relative to control; format: toxicity, cell-based; details: a549, 48 h
# A549 [33] = experiment: Inhibition of PM2.5 induced PI3K/Akt activation assessed as inhibition of Twist expression in human A549 cells at 10 to 20 uM; format: cell-based; details: dose 10-20 µM
# A549 [34] = experiment: Downregulation of PM2.5 induced vimentin mRNA expression in human A549 cells at 10 uM by qRT-PCR analysis relative to control; format: functional
# A549 [35] = experiment: Downregulation of PM2.5 induced vimentin mRNA expression in human A549 cells at 20 uM by qRT-PCR analysis relative to control; format: functional
# A549 [36] = experiment: Inhibition of PM2.5 induced TGF-beta1 secretion in human A549 cells at 10 uM by ELISA relative to control; format: functional
# A549 [37] = experiment: Inhibition of cell migration in PM2.5 induced human A549 assessed as relative migration length at 10 uM incubated for 24 hr by wound healing assay (reference value: 0.363 micrometer); format: functional
# A549 [38] = experiment: Downregulation of PM2.5 induced vimentin expression in human A549 cells at 10 to 30 uM by Western blot analysis relative to control; format: functional; details: dose 10-30 µM
# A549 [39] = experiment: Inhibition of cell migration in PM2.5 induced human A549 assessed as scratch migration length at 30 uM incubated for 0 hr by wound healing assay (reference value: 2.120 +/- 0.132 micrometer); format: functional
# A549 [40] = experiment: Inhibition of cell migration in PM2.5 induced human A549 assessed as scratch migration length at 10 uM incubated for 0 hr by wound healing assay (reference value: 2.120 +/- 0.132 micrometer); format: functional
# A549 [41] = experiment: Downregulation of PM2.5 induced CXCL12 expression in human A549 cells at 20 uM by ELISA relative to control; format: functional
# A549 [42] = experiment: Upregulation of PM2.5 induced E-cadherin expression in human A549 cells at 30 uM by Western blot analysis; format: functional, cell-based
# A549 [43] = experiment: Cytotoxicity against human A549 cells assessed as reduction in cell viability at 1.5625 to 25 uM incubated for 48 hrs by CCK-8 assay; format: toxicity, cell-based; details: a549, 48 h, dose 1.5625-25 µM
# A549 [44] = experiment: Protection against PM2.5 induced human A549 cells morphological change assessed as reduction in number of mesenchymal morphogenetic cells at 10 to 30 uM measured after 48 hrs by microscopic analysis; format: functional, cell-based; details: dose 10-30 µM
# A549 [45] = experiment: Inhibition of cell migration in PM2.5 induced human A549 at 30 uM incubated for 24 hrs by wound healing assay relative to control; format: functional
# A549 [46] = experiment: Downregulation of PM2.5 induced MMP-9 activation in human A549 cells at 10 uM by ELISA; format: functional, cell-based
# A549 [47] = experiment: Inhibition of cell invasion in PM2.5 induced human A549 cells assessed as reduction in cell invasiveness at 20 uM measured after 24 hrs by Giemsa staining based transwell assay relative to control; format: functional; set-up: scale not given: the % may be the effect or the level left
# A549 [48] = experiment: Downregulation of PM2.5 induced N-cadherin mRNA level in human A549 cells at 20 uM by qRT-PCR analysis relative to control; format: functional
# A549 [49] = experiment: Reversal of PM2.5 induced EMT in human A549 cells at 10 uM by ELISA; format: functional, cell-based
# A549 [50] = experiment: Upregulation of PM2.5 induced E-cadherin mRNA expression in human A549 cells at 10 uM by qRT-PCR analysis; format: functional, cell-based
# A549 [51] = experiment: Inhibition of cell invasion in PM2.5 induced human A549 cells assessed as number of cell perforation at 20 uM measured after 24 hrs by Giemsa staining based transwell assay (reference value: 93 +/- 4.04%); format: functional; set-up: scale not given: the % may be the effect or the level left
# A549 [52] = experiment: Inhibition of cell migration in PM2.5 induced human A549 assessed as scratch migration length at 20 uM incubated for 0 hr by wound healing assay (reference value: 2.120 +/- 0.132 micrometer); format: functional
compound,measurement,setting,value
COc1ccc(-c2coc3cc(O)cc(O)c3c2=O)cc1 [BIOCHANIN],inhibition,A549 [1],Active
same,Activity,A549 [2],Active
same,Activity,A549 [3],144%
same,Activity,A549 [4],52%
same,Activity,A549 [5],44.1%
same,Activity,A549 [6],Active
same,Activity,A549 [7],0.302 um
same,Activity,A549 [8],67%
same,Activity,A549 [9],Active
same,Activity,A549 [10],107%
same,Activity,A549 [11],Active
same,inhibition,A549 [12],Active
same,inhibition,A549 [13],Active
same,Activity,A549 [14],0.481 um
same,inhibition,[15],17.1%
same,Activity,A549 [16],1.451 um
same,Activity,A549 [17],78%
same,inhibition at 20 µM,A549 [18],13.1%
same,inhibition,[19],73.6%
same,Activity,A549 [20],Active
same,inhibition at 30 µM,A549 [21],24.8%
same,inhibition,A549 [22],Active
same,Activity,A549 [23],1.552 um
same,inhibition,[24],30%
same,Activity,A549 [25],Active
same,Activity,A549 [26],92%
same,Activity,A549 [27],17%
same,inhibition at 30 µM,A549 [28],63.3%
same,Activity,A549 [29],171%
same,Activity,A549 [30],1.568 um
same,inhibition at 20 µM,A549 [31],50%
same,Activity,A549 [32],19%
same,inhibition,A549 [33],Active
same,Activity,A549 [34],76%
same,Activity,A549 [35],48%
same,inhibition at 10 µM,A549 [36],16.2%
same,Activity,A549 [37],0.405 um
same,Activity,A549 [38],45%
same,Activity,A549 [39],1.854 um
same,Activity,A549 [40],1.973 um
same,Activity,A549 [41],20%
same,Activity,A549 [42],Active
same,Activity,A549 [43],Non-Toxic
same,Activity,A549 [44],Active
same,inhibition at 30 µM,A549 [45],22%
same,Activity,A549 [46],Active
same,Activity,A549 [47],34.09%
same,Activity,A549 [48],79%
same,Activity,A549 [49],Active
same,Activity,A549 [50],Active
same,Activity,A549 [51],61.3%
same,Activity,A549 [52],1.932 um
